Read-outs that look alike come from different tables or passages of the source.
What was measured:
[1] = Stability in diluted rat serum solution (50% v/v) at 37 °C; format: in vitro ADME; conditions: diluted rat serum (50% v/v), pH 7.4, 50% v/v rat serum, pH 7.4, 37 °C, read-out: t1/2 (h) Diluted Rat Serum
Procedure: (§1) The chemical stability of the TSPO-ligand MTX conjugates 3 and 4 was evaluated in 50 mM phosphate buffer solution at pH 7.4 and 37 °C; the physiological stability was also determined using a dilute rat serum solution (50% v/v) at 37 °C. The aim of this work is the synthesis of TSPO ligand-MTX conjugates in order to improve the plasma stability and having less side effects than MTX. In addition TSPO ligand-MTX conjugates could enhance the transport across BBB and due a tumor targeting effect for the TSPO moiety, might selectively deliver the antineoplastic agent to brain tumors and prolong its efficacy. The TSPO-ligand MTX conjugates 3 and 4 are stable in buffer solution at pH 7.4 and enough stable in physiological medium with their half-lives exceeding 3 h. […] In addition, CB86 (m/z = 407, [M + Na]^+) (Figure 1), most likely originating from the degradation of ligand 2, as previously shown, could be detected. Other products arising from the further degradation of the anticancer drug were found.
The TSPO ligand-MTX conjugates 3 and 4 stabilities in physiological medium were studied at 37 °C in 0.05 M phosphate buffer and 0.14 M NaCl at pH 7.4, containing 50% v/v of rat serum. […] Samples were centrifuged at 3500 rpm for 10 min, and the supernatant was removed, filtered through cellulose acetate membranes (0.22 µm, Advantec MFS) and then 20 µL of filtrates were immediately analyzed by HPLC. […]

[2] = system: RG2 rat glioma cells; test: Cytotoxicity by MTT assay, RG2 cells; format: cell-based; conditions: Glioma cell, 24 h exposure
Description: (§2) These cellular lines were selected for their high expression level of TSPO and, therefore, have been used extensively for in vitro experiments on the brain tumor models and for cytotoxicity studies relating to anticancer drugs, as well as TSPO-ligands and its nanodevices. The tested compounds show high cytotoxicity on all cell lines, especially for C6 rat glioma cells. In particular, the TSPO-ligand MTX α-conjugates 3 appears to be the most cytotoxic displaying a lower IC50 value compared to MTX on C6 cells.
(§3) Rat RG2 and C6 glioma cells were grown in DMEM (Dulbecco’s modified Eagle’s medium, Sigma Aldrich, Milano, Italy) nutrient supplemented with 10% heat inactivated FBS (Fetal Bovine Serum, Sigma Aldrich), 2 mM, L-glutamine, penicillin (100 U/mL), and streptomycin (100 µg/mL) at 37 °C in a humidified 5% CO2 atmosphere. Cells were fed every day and seeded in 96-well plates at a density of ~5000 cells/well for assays. MTX and TSPO ligand-MTX conjugates were dissolved in DMSO at initial concentrations of 1000 µg/mL and then diluted with medium. Cells were exposed to different concentrations of compounds (0.1–1000 nM) for 24 h.
(§4) Cell viability was evaluated by MTT (3-(4,5-dimethylthiazol-2-yl)-2,5-diphenyltetrazolium bromide) assay as previously described. In brief, 10 µL of MTT (5.0 mg/mL) was added to the cells and cultured at 37 °C, in a humidified 5% CO2 atmosphere for 2 h. After this period, medium was removed and the cells were replaced with 150 µL of a DMSO/ethanol (1:1) solution per well. The absorbance of the individual well was measured by microplate reader (Wallac Victor3, 1420 Multilabel Counter, Perkin-Elmer (Waltham, MA, USA). All experiments were repeated three times and each compound’s concentration was tested in triplicate.

[3] = target: central-type benzodiazepine receptor (CBR); test: Radioligand binding assay, displacement of [3H]flunitrazepam from rat cerebral cortex membranes
Procedure: (§5) The IC50 values were determined from the displacement curves using the reference compound [^3H]-PK 11195, for TSPO, or [^3H]flunitrazepam for CBR. The data obtained, expressed as IC50 values, as well as the ratios between CBR and TSPO affinity, respectively (Selectivity Index, SI), as a measure of the in vitro selectivity, are shown in Table 2 and were compared with unlabeled TSPO selective ligand PK 11195, and with CBR selective ligand flunitrazepam. […] Moreover, the SI of TSPO-ligand MTX conjugate 3 is similar to the reference compound PK 11195. […] Thus, the binding quantification of TSPO ligands is confounded by the expression of different forms of TSPO and to assess the potentially therapeutic use of TSPO-ligands would be appropriate to genetically test the patients.
(§6) Binding assays ([^3H]Flunitrazepam and [^3H]PK 11195 bindings) were assessed to membrane preparations from rat cerebral cortex as described previously. The IC50 values (GraphPad Prism software, (La Jolla, CA, USA)) were determined from the displacement curves using the reference compound [^3H]-PK11195, for TSPO or [^3H]flunitrazepam, for CBR, respectively. The selectivity index (SI) was calculated from: IC50(CBR)/IC50(TSPO).

[4] = system: SF126 human glioma cells; test: Cytotoxicity by MTT assay, SF126 cells; format: cell-based; conditions: SF-126
[5] = system: C6 rat glioma cells; test: Cytotoxicity by MTT assay, C6 cells; format: cell-based; conditions: Glioma cell, 24 h exposure
Description: as §2, §3, §4

[6] = system: SF188 human glioma cells; test: Cytotoxicity by MTT assay, SF188 cells; format: cell-based; conditions: SF-188
[7] = Chemical stability in 50 mM phosphate buffer pH 7.4 at 37 °C; format: physicochemical; conditions: 0.05 M phosphate buffer pH 7.4, 37 °C; read-out: t1/2 (h) PBS (converted)
Procedure: as §1
TSPO ligand-MTX conjugates 3 and 4 chemical stabilities were studied at pH 7.4 in 0.05 M phosphate buffer at 37 °C. […] At appropriate time intervals, aliquots of 100 µL of each sample were removed, filtered through cellulose acetate membranes (0.22 µm, Advantec MFS, Pleasanton, CA, USA), and then 20 µL of filtrates were immediately analyzed by HPLC. […]

[8] = Transport across MDCKII-MDR1 cell monolayer; conditions: dog, MDCK-MDR1, pH 7.4
Procedure: (§7) The apparent permeability coefficient (Papp) of each compound was calculated on the basis of the amounts permeated through MDCKII-MDR1 monolayer by the equation: Papp=VA dC/A[D]in dt where VA (dC/dt) is the linear appearance rate of mass in the receiver solution; A is the filter/cell surface area and [D]in is the initial tested compound concentration in the apical (AP) chamber. The Papp values were evaluated in apical to basolateral direction. […] On an experimental day, the integrity of the cell monolayer was assessed by measuring the transendothelial electrical resistance (TEER) value.
(§8) The bi-directional transport study was conducted as previously reported [15]. A Transwell® 12 plate consisting of differentiated MDCKII-MDR1cells plated on polyester microporous filters (12 mm diameter, 0.4 µm pore size, 0.5 mL apical volume, 1.5 mL basolateral volume) at a density of 100,000 cells/cm^2, was used for the permeability assay. The integrity of the cell monolayer was assessed by measuring the TEER value in each well, using an epithelial volt-ohm meter (EVOM). Cell monolayers with TEER 120–140 Ohm/cm^2 were used. […] Fresh assay medium was placed in the receiver compartment. […] After incubation time of 2 h, samples were removed from the apical side of the monolayer and then analyzed. […] All experiments were repeated three times and each compound was tested in triplicate.

[9] = target: T1, TSPO (Rattus norvegicus, UniProt P16257); test: Radioligand binding assay, displacement of [3H]-PK 11195 from rat cerebral cortex membranes; conditions: for SI (selectivity index): IC50(CBR)/IC50(TSPO); for IC50: rat cerebral cortex membranes, [3H]-PK 11195
T1 construct: from tissue; host or cells: rat cerebral cortex membranes
Procedure: as §5, §6

[10] = target: central-type benzodiazepine receptor (CBR); conditions: rat cerebral cortex membranes, [3H]flunitrazepam; cited from earlier work
[11] = in vitro; conditions: dog, MDCK-MDR1, pH 7.4
Procedure: as §7, §8

[12] = target: T1, TSPO; conditions: cited from earlier work

Structure (SMILES)	half-life [1]	IC50 [2]	IC50 [3]	melting point	IC50 [4]	IC50 [5]	IC50 [6]	half-life [7]	Papp at 2 h, 75 µM [8]	SI (selectivity index) [9]	IC50 [9]	IC50 [10]	Papp at 2 h, 75 µM [11]	SI (selectivity index) ([12]; IC50(CBR)/IC50(TSPO))	IC50 ([12]; read-out: IC50 (nM) TSPO Cortex, rat cerebral cortex membranes, [3H]-PK 11195)
CCCN(CCC)C(=O)Cc1c(-c2ccc(Cl)cc2)nc2c(NC(=O)CNC(=O)CCC(NC(=O)c3ccc(N(C)Cc4cnc5nc(N)nc(N)c5n4)cc3)C(=O)O)cccn12 (centres unmarked) [Compound 4, 5-(2-(2-(4-Chlorophenyl)-3-(2-(dipropylamino)-2-oxoethyl)imidazo[1,2-a]pyridin-8-ylamino)-2-oxoethylamino)-2-(4-(((2,4-diaminopteridin-6-yl)methyl)(methyl)amino)benzamido)-5-oxopentanoic acid]	> 3 h	15.2 ± 2.9 nM	> 100000 nM	190 °C (dec.)	25 ± 2.6 nM	2.2 ± 0.6 nM	18.2 ± 2 nM	74 ± 12 h	3.32 ×10⁻⁶ cm/s	>2.5 × 10^3	40.3 ± 3.8 nM	–	–	–	–
CCCN(CCC)C(=O)Cc1c(-c2ccc(Cl)cc2)nc2c(NC(=O)CNC(=O)C(CCC(=O)O)NC(=O)c3ccc(N(C)Cc4cnc5nc(N)nc(N)c5n4)cc3)cccn12 (centres unmarked) [Compound 3, 5-(2-(2-(4-Chlorophenyl)-3-(2-(dipropylamino)-2-oxoethyl)imidazo[1,2-a]pyridin-8-ylamino)-2-oxoethylamino)-4-(4-(((2,4-diaminopteridin-6-yl)methyl)(methyl)amino)benzamido)-5-oxopentanoic acid]	> 3 h	4.2 ± 3.2 nM	> 100000 nM	210 °C (dec.)	14.2 ± 4.2 nM	1.2 ± 0.7 nM	9.2 ± 3.4 nM	144 ± 25 h	3.65 ×10⁻⁶ cm/s	>1.4 × 10^4	7.2 ± 2.1 nM	–	–	–	–
CCC(C)N(C)C(=O)c1cc2ccccc2c(-c2ccccc2Cl)n1 (centres unmarked) [PK11195]	–	–	–	–	–	–	–	–	–	–	–	> 100000 nM	–	–	–
CN(Cc1cnc2nc(N)nc(N)c2n1)c1ccc(C(=O)N[C@@H](CCC(=O)O)C(=O)O)cc1 [MTX, 2,4-diamino-N^10-methylpteroylglutamic acid, reference compound]	–	3.8 ± 1.5 nM	–	–	1.2 ± 0.3 nM	2.6 ± 0.8 nM	1.2 ± 0.2 nM	–	–	–	–	–	0.091 ×10⁻⁶ cm/s	–	–
CCCN(CCC)C(=O)Cc1c(-c2ccc(Cl)cc2)nc2c(NC(=O)CN)cccn12 [Compound 2, N,N-dipropyl-[2-(8-(2-aminoacetamido)-2-(4-chlorophenyl)imidazo[1,2-a]pyridin-3-yl)]acetamide]	–	–	–	–	–	–	–	–	–	–	–	> 100000 nM	–	>4.1 × 10^3	24 ± 4.2 nM
CN1C(=O)CN=C(c2ccccc2F)c2cc([N+](=O)[O-])ccc21 [Flunitrazepam]	–	–	–	–	–	–	–	–	–	–	–	5.1 ± 0.5 nM	–	–	–

Source: publication PMC4926499, “TSPO Ligand-Methotrexate Prodrug Conjugates: Design, Synthesis, and Biological Evaluation” (International Journal of Molecular Sciences, 2016)
